The source of these data is patent publication US7034042B2, “N-(4-aryloxypiperidin-1-ylalkyl) cinnamic amides as CCR33 receptor antagonists” (Novartis AG, priority 2000, dated 2006).

The target of this experiment is T1, human CCR-3 (Homo sapiens, UniProt P51677).
T1 construct: expressed in transfected cells; membranes
T1 sequence (P51677 1-355): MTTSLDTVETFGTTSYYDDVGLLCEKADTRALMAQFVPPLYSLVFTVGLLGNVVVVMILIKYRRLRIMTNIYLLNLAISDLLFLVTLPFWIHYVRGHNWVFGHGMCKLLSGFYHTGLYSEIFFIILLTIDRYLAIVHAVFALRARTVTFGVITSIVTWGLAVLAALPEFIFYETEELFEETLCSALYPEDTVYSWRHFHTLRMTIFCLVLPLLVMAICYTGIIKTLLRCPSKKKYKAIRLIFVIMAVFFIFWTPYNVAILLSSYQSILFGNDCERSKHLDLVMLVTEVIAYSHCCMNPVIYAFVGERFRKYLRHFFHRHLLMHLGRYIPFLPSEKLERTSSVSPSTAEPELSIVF
The experiment in a line: CCR-3 Binding Assay (inhibition of [125I]-human eotaxin binding, SPA). The note with it: binding of [125I]-human eotaxin to membranes of RBL-2H3 cells stably expressing CCR3; 4 hours at room temperature. How it is done:
In this assay the effect of agents of the invention on the binding of human eotaxin to human CCR-3 is determined. Recombinant cells expressing human CCR-3 are captured by wheatgerm agglutinin (WGA) polyvinyltoluidene (PVT) SPA beads (available from Amersham), through a specific interaction between the WGA and carbohydrate residues of glycoproteins on the surface of the cells. [^125I]-human eotaxin (available from Amersham) binds specifically to CCR-3 receptors bringing the [^125I]-human eotaxin in close proximity to the SPA beads. Emitted â-particles from the [^125I]-human eotaxin excite, by its proximity, the fluorophore in the beads and produce light.
Preparation of Assay Buffer: 5.96 g HEPES and 7.0 g sodium chloride are dissolved in distilled water and 1M aqueous CaCl2 (1 mL) and 1M aqueous MgCl2 (5 mL) are added. The pH is adjusted to 7.6 with NaOH and the solution made to a final volume of 1 L using distilled water. 5 g bovine serum albumin and 0.1 g sodium azide are then dissolved in the solution and the resulting buffer stored at 4° C. A Complete™ protease inhibitor cocktail tablet (available from Boehringer) is added per 50 mL of the buffer on the day of use.
Preparation of Homogenisation Buffer: Tris-base (2.42 g) is dissolved in distilled water, the pH of the solution is adjusted to 7.6 with hydrochloric acid and the solution is diluted with distilled water to a final volume of 1 L. The resulting buffer is stored at 4° C. A Complete™ protease inhibitor cocktail tablet is added per 50 mL of the buffer on the day of use.
Preparation of membranes: Confluent rat basophil leukemia (RBL-2H3) cells stably expressing CCR3 are removed from tissue culture flasks using enzyme-free cell dissociation buffer and resuspended in phosphate-buffered saline. […]
The assay is performed in a final volume of 250 μL per well of an Optiplate (ex Canberra Packard). […] The resulting scintillations are counted using a Canberra Packard TopCount, each well being counted for 1 minute. […]

Take `COc1ccc(C#N)cc1/C=C/C(=O)N[C@H](CNC(C)=O)CN1CCC(Oc2ccc(F)cc2)CC1` [Example 16, (E)-N-{(R)-1-(Acetylamino-methyl)-2-[4-(4-fluoro-phenoxy)-piperidin-1-yl]-ethyl}-3-(5-cyano-2-methoxy-phenyl)-acrylamide]: the IC50 – broadly, the concentration that inhibits the measured activity by half – was 0.0028 µM. In other words, the single-digit nanomolar range. The same measure for `COc1ccc(C#N)cc1/C=C/C(=O)NC(CO)CN1CCC(Oc2ccc(F)cc2)CC1` (stereo not drawn) [Example 1, (E)-3-(5-Cyano-2-methoxy-phenyl)-N-{2-[4-(4-fluoro-phenoxy)-piperidin-1-yl]-1-hydroxymethyl-ethyl}-acrylamide]: 0.016 µM; for `COc1ccc(C#N)cc1/C=C/C(=O)N[C@H](CC(=O)N(C)CCO)CN1CCC(Oc2ccc(F)cc2)CC1` [Example 14, (E)-3-(5-Cyano-2-methoxy-phenyl)-N-((R)-2-[4-(4-fluoro-phenoxy)-piperidin-1-yl]-1-{[(2-hydroxy-ethyl)-methyl-carbamoyl]-methyl}-ethyl)-acrylamide]: 0.011 µM.
